# Source: ChEMBL document CHEMBL1770065, “Discovery of a clinical candidate from the structurally unique dioxa-bicyclo[3.2.1]octane class of sodium-dependent glucose cotransporter 2 inhibitors” (J Med Chem, 2011)
# Tests used:
# [1] = Cmax in Sprague-Dawley rat at 5 mg/kg, po; format: ADME, organism-based; parameters: dose 5 mg/kg, route oral; settings: in vivo
# [2] = target: T1, Solute carrier family 22 member 2 (Homo sapiens, UniProt O15244); assay: Inhibition of human OCT2
# T1 sequence (O15244 whole entry): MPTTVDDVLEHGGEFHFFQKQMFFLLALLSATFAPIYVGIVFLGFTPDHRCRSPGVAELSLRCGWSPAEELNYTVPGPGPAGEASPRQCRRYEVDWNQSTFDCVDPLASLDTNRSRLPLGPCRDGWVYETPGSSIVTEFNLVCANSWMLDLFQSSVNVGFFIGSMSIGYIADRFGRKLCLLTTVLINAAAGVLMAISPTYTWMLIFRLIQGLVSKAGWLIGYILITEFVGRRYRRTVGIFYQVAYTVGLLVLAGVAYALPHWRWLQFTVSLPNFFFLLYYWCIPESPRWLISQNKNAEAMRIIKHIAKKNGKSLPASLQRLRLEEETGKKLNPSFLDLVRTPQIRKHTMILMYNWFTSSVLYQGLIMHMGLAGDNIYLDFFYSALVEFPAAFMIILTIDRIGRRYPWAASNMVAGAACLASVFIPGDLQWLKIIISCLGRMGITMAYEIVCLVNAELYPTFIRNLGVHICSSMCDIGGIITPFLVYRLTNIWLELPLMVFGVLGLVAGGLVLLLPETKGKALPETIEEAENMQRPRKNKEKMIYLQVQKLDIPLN
# [3] = target: T2, Solute carrier family 22 member 3 (Rattus norvegicus, UniProt O88446); assay: Inhibition of rat OCT3 expressed in HEK293 cells; format: cell-based
# T2 sequence (O88446 whole entry): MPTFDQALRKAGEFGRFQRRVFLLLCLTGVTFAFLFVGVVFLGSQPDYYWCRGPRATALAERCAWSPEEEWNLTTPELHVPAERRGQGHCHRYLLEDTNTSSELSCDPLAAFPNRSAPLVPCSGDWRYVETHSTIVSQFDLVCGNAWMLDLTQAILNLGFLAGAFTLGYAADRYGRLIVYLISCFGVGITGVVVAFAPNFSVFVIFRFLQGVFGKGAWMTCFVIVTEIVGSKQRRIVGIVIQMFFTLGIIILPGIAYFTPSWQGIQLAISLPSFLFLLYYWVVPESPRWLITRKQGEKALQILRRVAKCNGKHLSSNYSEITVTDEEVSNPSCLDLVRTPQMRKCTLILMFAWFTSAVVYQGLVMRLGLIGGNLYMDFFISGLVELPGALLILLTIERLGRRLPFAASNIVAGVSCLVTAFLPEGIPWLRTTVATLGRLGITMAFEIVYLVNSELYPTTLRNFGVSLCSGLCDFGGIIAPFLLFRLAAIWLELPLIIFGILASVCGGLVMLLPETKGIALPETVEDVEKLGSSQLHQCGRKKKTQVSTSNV
# [4] = Apparent intrinsic clearance in human liver microsomes assessed per mg of protein; format: ADME, Microsome
# Rattus norvegicus [5] = assay: fAUC (0 to 24 hrs) in Sprague-Dawley rat at 30 mg/kg, po after 24 hrs; format: ADME, organism-based; parameters: dose 30 mg/kg, route oral; settings: in vivo
# Rattus norvegicus [6] = assay: Antidiabetic activity in Sprague-Dawley rat assessed as increase of urinary glucose excretion assessed per 200 gram of body weight at 30 mg/kg, po after 24 hrs; format: functional, Urine
# [7] = target: T3, Solute carrier family 22 member 2 (Rattus norvegicus, UniProt Q9R0W2); assay: Inhibition of rat OCT2 expressed in HEK293 cells; format: cell-based
# T3 sequence (Q9R0W2 whole entry): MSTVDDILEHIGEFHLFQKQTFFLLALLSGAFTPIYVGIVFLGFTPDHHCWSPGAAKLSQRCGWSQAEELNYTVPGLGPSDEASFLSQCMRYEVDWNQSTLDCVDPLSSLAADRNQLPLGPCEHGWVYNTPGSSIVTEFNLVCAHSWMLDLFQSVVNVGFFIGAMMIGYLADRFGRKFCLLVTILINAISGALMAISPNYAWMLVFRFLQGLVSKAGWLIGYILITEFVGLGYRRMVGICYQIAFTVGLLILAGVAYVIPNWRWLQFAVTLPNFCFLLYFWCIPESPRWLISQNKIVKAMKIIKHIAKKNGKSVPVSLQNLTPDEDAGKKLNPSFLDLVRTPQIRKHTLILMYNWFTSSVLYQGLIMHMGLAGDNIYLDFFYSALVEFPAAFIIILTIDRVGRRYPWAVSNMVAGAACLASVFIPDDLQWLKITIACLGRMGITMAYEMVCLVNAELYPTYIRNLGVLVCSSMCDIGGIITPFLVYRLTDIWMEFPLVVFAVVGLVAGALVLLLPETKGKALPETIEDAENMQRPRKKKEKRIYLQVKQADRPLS
# Rattus norvegicus [8] = assay: Antidiabetic activity in po dosed Sprague-Dawley rat assessed as increase of urinary glucose excretion after 24 hrs; format: functional, organism-based; settings: Urine
compound,measurement,setting,value
CCOc1ccc(Cc2cc([C@]34OC[C@](CO)(O3)[C@@H](O)[C@H](O)[C@H]4O)ccc2Cl)cc1 [ERTUGLIFLOZIN],Cmax,[1],1940 ng/mL
same,inhibition (INH),[2],Not Active
same,inhibition (INH),[3],Not Active
same,microsomal CLint,[4],12 µL/min/mg
same,fAUC,Rattus norvegicus [5],4280 ng·h/mL
same,Activity,Rattus norvegicus [6],2554 mg
same,inhibition (INH),[7],Not Active
same,Activity,Rattus norvegicus [8],Dose-dependent effect
